Data taken from patent US9642819B2, “Low dosage serotonin 5-HT2A receptor agonist to suppress inflammation” (BOARD OF SUPERVISORS OF LOUISIANA STATE UNIVERSITY AND …, priority 2008, dated 2017).
pIC50: −log10 of the molar value.

Tests used:
[1] = tested on: IL-6 gene expression; test: TNF-α induced IL-6 gene expression in primary rat aortic smooth muscle cells; format: cell-based; conditions: RASM passage 4, media with FBS, 24 h pretreatment, TNF-α 10 ng/ml, read-out: IC50 for proinflammatory gene expression inhibition for IL-6
Method: RASM cells and treatment. Rat aortic smooth muscle (RASM) cells were isolated from adult 180 g male Sprague-Dawley rats and provided by the Cell and Molecular Core Facility in the Department of Pharmacology at LSUHSC-NO. Isolated RASM cells were grown in M-199 media containing 10% fetal bovine serum (Gibco), 100 units/mL penicillin, and 100 µg/mL streptomycin, and incubated at 37° C. in 5% CO2. Cells for all assays were used between passages 3 and 5. Prior to treatments, cells were grown in M-199 media with 10% fetal bovine serum (FBS) until 30-50% confluent. […]
RNA isolation and Quantitative Realtime-PCR. […]
The sequences of primers used are: 5-HT2AR (5-hydroxytryptamine 2A receptor): forward primer 5′-[…]-3′ (SEQ ID NO: 1), reverse primer, 5′[…]-3′ (SEQ ID NO: 2); ICAM-1 (intracellular adhesion molecule 1): forward primer, 5′-[…]-3′ (SEQ ID NO: 3, reverse primer, 5′-[…]-3′ (SEQ ID NO: 4); VCAM-1 (vascular adhesion molecule 1): forward primer, 5′-[…]-3′ (SEQ ID NO: 5), reverse primer, 5′-[…]-3′ (SEQ ID NO: 6); IL-6 (interleukin-6): forward primer, 5′-[…] […]-3′ (SEQ ID NO: 7), reverse primer, 5′-[…]-3′ (SEQ ID NO: 8); and cyclophillin B (control amplicon): forward primer, 5′-[…]-3′ (SEQ ID NO: 9), reverse primer, 5′-[…]-3′ (SEQ ID NO: 10). […] Quantitative determination of gene expression levels using a 2-step cycling protocol was performed on a MyIQ-5 Cycler (Bio-Rad, Hercules Calif.). […]

[2] = tested on: nuclear translocation of p65; test: Nuclear translocation of NF-κB subunit p65 in RASM cells; format: cell-based, rat; conditions: 1 nM, 24 hours or one hour before or together with TNF-α 10 ng/ml
Method: Nuclear Translocation of p65. RASM cells were grown in M-199 medium+10% FBS until 50% confluent in 8 well chamber slides. Cells were treated with 1 nM (R)-DOI for various times as indicated, and TNF-α (10 ng/ml; tumor necrosis factor alpha) added. Thirty minutes after TNF-α treatment, cells were fixed and processed with rabbit anti p65 primary and Alexafluor 488-conjugated goat secondary antibodies as described in Zerfaoui et al. (2008) (Zerfaoui et al., 2008). Fluorescent signal was visualized on a Leica DMRA2 fluorescent microscope.
Both ICAM-1 and VCAM-1 gene transcription during inflammatory processes is regulated by the transcription factor NF-κB (Collins et al., 1995). During this process, NF-κB must be activated, and then translocated from the cytoplasm to the nucleus, where it promotes gene transcription. To investigate whether 5-HT2A receptor stimulated inhibition of NF-κB activation and translocation might be a possible mechanism for blockade of proinflammatory gene expression changes, a series of immunohistochemical experiments were conducted examining p65 translocation in RASM cells. TNF-α treatment for 30 minutes caused the expected dramatic shift in localization of the p65 subunit of NF-κB from the cytoplasm to the nucleus (FIG. 7A). […]

[3] = tested on: ICAM-1 gene expression; test: TNF-α induced ICAM-1 gene expression in human neuroblastoma cells (SHSY5Y); format: cell-based
Method: Experiments were conducted to analyze for the effect of 5-HT2A receptor activation on proinflammatory marker expression in other cell types. Human neuroblastoma cells (SHSY5Y) and rat glioma cells (C6) can be obtained from the American Type Culture Collection (Manassas, Va.), but were provided Purdue University. The cells were grown in DMEM+10% FBS. DMEM was made and provided by the Cell and Molecular Core of the Mentoring in Cardiovascular Biology COBRE center at LSUHSC-NO. FBS was purchased from Invitrogen (Carlsbad, Calif.). Primary rat aortic endothelial cells were prepared fresh and provided by the Cell and Molecular Core of the Mentoring in Cardiovascular Biology COBRE center at LSUHSC-NO. Cells were tested at passages 3-4. Cells were grown in endothelial cell growth medium (Cell Applications, Inc.). Primary rat bronchoaveolar macrophage cells were obtained by lung lavage from rats and used at day 3 or 4 post plating in DMEM+10% FBS.
All treatments with 5-HT2A receptor agonists occurred 1 hour prior to the addition of TNF-alpha (10 ng/ml) or LPS (100 ng or 1 mg) depending on the experiment. All RNA isolations, cDNA synthesis, QPCR gene expression assays examining ICAM1, VCAM1, and IL6, and data analysis were performed as described above in Example 1, except the primers were different for the human cell experiment. […]

**Q.** How did the pIC50 [1] turn out when COc1cc(C[C@@H](C)N)c(OC)cc1I [(R)-DOI, (R)-1-(2,5-dimethoxy-4-iodophenyl)-2-aminopropane] was run?
**A.** 10.99

**Q.** What about the “effect on TNF-α induced p65 nuclear translocation” value [2] of the same compound?
**A.** completely blocked

**Q.** And the “effect on ICAM-1 gene expression in human neuroblastoma cells” value [3]?
**A.** blocked

**Q.** What about the pIC50 ([3]; Homo sapiens, Neuroblastoma cell, 1 hour prior to TNF-α 10 ng/ml, read-out: IC50 for ICAM-1 gene expression inhibition in human neuroblastoma cells) of the same compound?
**A.** ~9.10
